Measured values from patent US20260207578A1, “COMPOUND BASED ON SULFUR/OXYGEN SUBSTITUTED GLUTARIMIDE-BASED ISOINDOLINONE SKELETON AND USE THEREOF” (Gluetacs Therapeutics (Shanghai) Co., LTD., priority 2022, published 2026).

Assays:
[1] = biological target: T1, human Cereblon WT GST-tagged protein (Homo sapiens, UniProt Q96SW2); test: CRBN-binding affinity, HTRF (CEREBLON BINDING kit); details: displacement of Thalidomide-Re reagent, 3 hours at room temperature
T1 construct: purchased CISBIO 64BDCRBNPEH
In short: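 Compounds displace a thalidomide-Re tracer from GST-tagged human Cereblon WT, detected with an Eu-labelled anti-GST antibody by time-resolved fluorescence. Signal at 620 nm was normalised against solvent and blank controls.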

[2] = biological target: T2, IKZF1 (Homo sapiens, UniProt Q13422+Q96SW2); test: Western-blot assay, substrate protein in hPBMCs; type: cell-based; details: hPBMC cells, 24 hours, tested at 50 nM and 500 nM, table does not say which
T2 construct: endogenous in cells; host or cells: human PBMCs (Milecell Biotechnologies)
In short: (§1)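 hPBMCs (1×10^6 cells/mL) exposed 24 h to compound at 50 nM and 500 nM, lysed, and probed by Western blot. Band grayscale normalized to internal control gives % protein remaining versus DMSO; DC50 from concentration-response fit at half DMSO band intensity.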

[3] = biological target: T3, IKZF3 (Homo sapiens, UniProt Q96SW2+Q9UKT9); test: Western-blot assay, substrate protein in hPBMCs; type: cell-based; details: hPBMC cells, 24 hours, tested at 50 nM and 500 nM, table does not say which
T3 construct: endogenous in cells; host or cells: human PBMCs (Milecell Biotechnologies)
In short: as §1

[4] = biological target: T4, CK1α (Homo sapiens, UniProt P48729+Q96SW2); test: Western-blot assay, substrate protein in hPBMCs; type: cell-based; details: hPBMC cells, 24 hours, tested at 50 nM and 500 nM, table does not say which
T4 construct: endogenous in cells; host or cells: human PBMCs (Milecell Biotechnologies)
In short: (§2)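 Thawed hPBMCs, 1×10^6 cells/mL; 24 h compound; RIPA + phosphatase inhibitor lysis, BCA-normalised loading, SDS-PAGE, NC transfer, immunodetection. Bands vs internal control → % remaining; DC50 = concentration at 50% of DMSO band intensity.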

[5] = biological target: T5, GSPT1 (Homo sapiens, UniProt P15170+Q96SW2); test: Western-blot assay, substrate protein in hPBMCs; type: cell-based; details: hPBMC cells, 24 hours, tested at 50 nM and 500 nM, table does not say which
T5 construct: endogenous in cells; host or cells: human PBMCs (Milecell Biotechnologies)
In short: as §2

[6] = biological target: T6, IKZF2 (Homo sapiens, UniProt Q96SW2+Q9UKS7); test: Western-blot assay, substrate protein in hPBMCs; type: cell-based; details: hPBMC cells, 24 hours, tested at 50 nM and 500 nM, table does not say which
T6 construct: endogenous in cells; host or cells: human PBMCs (Milecell Biotechnologies)
In short: as §2

[7] = biological target: T7, Wee1 (Homo sapiens, UniProt P30291+Q96SW2); test: Western-blot assay, substrate protein in hPBMCs; type: cell-based; details: hPBMC cells, 24 hours, tested at 50 nM and 500 nM, table does not say which
T7 construct: endogenous in cells; host or cells: human PBMCs (Milecell Biotechnologies)
In short: as §2

[8] = tested on: MV-4-11; test: Half inhibitory concentration (IC50) against tumor cells, Cell Counting Kit-8; type: cell-based; details: Homo sapiens, MV4-11, CCK-8, 96 h treatment, read-out: inhibitory activity (IC50, nM) against tumor cells proliferation
Description: The tumor cells used herein were cultured in a cell culture medium listed in table A at 37° C. in an incubator with 5% CO2.
After the cells were treated with the compounds of the present disclosure for a period of time, the cell viability detection reagent was added to the culture medium for cell viability assessment according to the instructions provided with the CCK-8 kit. […] The growth inhibition of the compounds of the present disclosure on cells was plotted by Prism Graphpad software, and the IC50 values of the compounds of the present disclosure were calculated therefrom.

T6 sequence (Q9UKS7 whole entry): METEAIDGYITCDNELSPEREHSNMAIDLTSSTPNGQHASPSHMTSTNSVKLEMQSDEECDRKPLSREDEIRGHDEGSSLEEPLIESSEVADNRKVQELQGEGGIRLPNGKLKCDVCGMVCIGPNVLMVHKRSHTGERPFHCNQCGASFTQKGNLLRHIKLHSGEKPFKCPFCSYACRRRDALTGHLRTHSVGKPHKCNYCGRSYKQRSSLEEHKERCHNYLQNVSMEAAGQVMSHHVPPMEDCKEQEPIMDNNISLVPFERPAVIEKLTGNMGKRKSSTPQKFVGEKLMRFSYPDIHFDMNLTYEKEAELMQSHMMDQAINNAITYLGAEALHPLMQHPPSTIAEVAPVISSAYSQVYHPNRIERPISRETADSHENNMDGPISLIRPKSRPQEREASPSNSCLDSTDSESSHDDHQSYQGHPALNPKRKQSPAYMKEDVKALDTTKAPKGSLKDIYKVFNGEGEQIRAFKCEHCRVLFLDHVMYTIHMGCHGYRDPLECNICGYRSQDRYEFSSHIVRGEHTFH
T6 sequence (Q96SW2 whole entry): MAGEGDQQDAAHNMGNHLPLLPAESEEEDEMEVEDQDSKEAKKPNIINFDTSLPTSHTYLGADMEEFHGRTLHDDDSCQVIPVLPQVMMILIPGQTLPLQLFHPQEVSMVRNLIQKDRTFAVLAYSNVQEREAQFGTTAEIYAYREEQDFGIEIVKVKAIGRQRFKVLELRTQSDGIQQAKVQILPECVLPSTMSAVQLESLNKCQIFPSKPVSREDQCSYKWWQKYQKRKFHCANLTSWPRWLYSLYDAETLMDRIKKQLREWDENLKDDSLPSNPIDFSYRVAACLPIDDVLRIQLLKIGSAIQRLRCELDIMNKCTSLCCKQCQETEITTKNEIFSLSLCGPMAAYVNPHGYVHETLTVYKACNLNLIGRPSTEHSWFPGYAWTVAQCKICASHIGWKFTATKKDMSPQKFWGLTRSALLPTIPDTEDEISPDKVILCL
T6 sequence (Q16531 whole entry partner): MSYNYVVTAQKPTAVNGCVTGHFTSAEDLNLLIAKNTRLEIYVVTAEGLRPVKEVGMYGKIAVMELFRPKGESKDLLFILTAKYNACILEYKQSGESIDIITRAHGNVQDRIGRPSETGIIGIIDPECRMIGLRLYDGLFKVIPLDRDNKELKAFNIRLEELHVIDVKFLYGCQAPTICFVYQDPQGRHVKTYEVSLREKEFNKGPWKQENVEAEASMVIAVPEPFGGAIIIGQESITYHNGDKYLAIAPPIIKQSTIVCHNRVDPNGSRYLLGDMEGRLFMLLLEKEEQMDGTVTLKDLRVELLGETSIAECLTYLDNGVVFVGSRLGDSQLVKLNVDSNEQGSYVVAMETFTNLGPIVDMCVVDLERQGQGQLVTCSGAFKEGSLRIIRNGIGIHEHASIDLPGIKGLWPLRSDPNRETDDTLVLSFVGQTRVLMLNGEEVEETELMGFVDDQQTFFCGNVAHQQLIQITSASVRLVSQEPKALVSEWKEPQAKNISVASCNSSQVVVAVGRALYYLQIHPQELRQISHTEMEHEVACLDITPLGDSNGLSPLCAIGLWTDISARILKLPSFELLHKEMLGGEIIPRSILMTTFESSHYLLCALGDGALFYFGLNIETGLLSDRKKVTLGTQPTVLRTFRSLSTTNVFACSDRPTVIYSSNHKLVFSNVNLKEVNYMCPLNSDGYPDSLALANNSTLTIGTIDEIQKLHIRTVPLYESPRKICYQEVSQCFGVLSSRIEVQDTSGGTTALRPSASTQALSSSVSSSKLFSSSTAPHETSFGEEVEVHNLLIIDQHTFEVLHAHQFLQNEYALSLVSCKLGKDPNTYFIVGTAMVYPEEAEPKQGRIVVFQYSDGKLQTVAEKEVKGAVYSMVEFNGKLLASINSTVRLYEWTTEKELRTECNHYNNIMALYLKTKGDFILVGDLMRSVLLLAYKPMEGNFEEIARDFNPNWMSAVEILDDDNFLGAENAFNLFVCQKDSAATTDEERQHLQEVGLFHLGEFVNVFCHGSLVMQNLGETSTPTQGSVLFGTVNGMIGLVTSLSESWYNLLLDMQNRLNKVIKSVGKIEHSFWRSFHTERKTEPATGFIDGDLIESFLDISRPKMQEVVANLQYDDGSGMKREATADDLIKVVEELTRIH
T3 sequence (Q9UKT9 whole entry): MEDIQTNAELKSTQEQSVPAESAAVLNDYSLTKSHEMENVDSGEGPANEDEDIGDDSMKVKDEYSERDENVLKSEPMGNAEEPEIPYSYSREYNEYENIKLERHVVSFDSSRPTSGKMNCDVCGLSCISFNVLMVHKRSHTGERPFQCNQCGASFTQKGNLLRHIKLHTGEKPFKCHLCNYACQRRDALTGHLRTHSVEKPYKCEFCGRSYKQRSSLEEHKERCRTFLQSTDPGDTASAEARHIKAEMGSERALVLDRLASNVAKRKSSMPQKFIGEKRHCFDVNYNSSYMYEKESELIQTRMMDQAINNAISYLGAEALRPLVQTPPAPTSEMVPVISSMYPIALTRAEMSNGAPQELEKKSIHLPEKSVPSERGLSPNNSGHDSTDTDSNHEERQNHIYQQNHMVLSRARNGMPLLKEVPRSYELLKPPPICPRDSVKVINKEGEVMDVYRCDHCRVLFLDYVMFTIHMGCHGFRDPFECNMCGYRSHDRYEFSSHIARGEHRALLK
T3 sequence (Q96SW2 whole entry): as the sequence (Q96SW2 whole entry) above
T3 sequence (Q16531 whole entry partner): as the sequence (Q16531 whole entry partner) above
T2 sequence (Q13422 whole entry): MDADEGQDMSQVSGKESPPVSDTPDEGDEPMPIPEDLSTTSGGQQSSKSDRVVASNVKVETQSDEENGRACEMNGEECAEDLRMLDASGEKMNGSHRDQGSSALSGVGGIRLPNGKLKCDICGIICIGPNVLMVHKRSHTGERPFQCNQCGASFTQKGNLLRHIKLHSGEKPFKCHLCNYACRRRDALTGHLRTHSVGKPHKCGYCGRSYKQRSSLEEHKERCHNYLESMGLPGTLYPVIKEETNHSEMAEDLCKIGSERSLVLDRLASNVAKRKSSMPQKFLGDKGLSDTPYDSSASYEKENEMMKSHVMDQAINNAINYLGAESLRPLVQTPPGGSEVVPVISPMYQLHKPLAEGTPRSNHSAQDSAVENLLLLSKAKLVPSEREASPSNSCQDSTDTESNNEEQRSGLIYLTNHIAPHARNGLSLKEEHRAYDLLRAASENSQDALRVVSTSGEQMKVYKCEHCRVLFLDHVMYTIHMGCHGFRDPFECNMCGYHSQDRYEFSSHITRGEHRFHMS
T2 sequence (Q96SW2 whole entry): as the sequence (Q96SW2 whole entry) above
T2 sequence (Q16531 whole entry partner): as the sequence (Q16531 whole entry partner) above
T1 sequence (Q96SW2 whole entry): as the sequence (Q96SW2 whole entry) above
T4 sequence (P48729 whole entry): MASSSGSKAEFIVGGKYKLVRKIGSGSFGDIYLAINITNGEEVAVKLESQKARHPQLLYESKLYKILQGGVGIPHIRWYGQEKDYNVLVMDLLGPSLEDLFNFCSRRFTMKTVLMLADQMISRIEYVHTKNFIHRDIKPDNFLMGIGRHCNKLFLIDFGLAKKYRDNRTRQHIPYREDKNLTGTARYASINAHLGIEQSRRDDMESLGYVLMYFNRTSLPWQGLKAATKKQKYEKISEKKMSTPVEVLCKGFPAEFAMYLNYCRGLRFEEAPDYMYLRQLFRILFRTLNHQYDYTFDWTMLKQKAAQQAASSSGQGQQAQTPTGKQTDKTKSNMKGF
T4 sequence (Q96SW2 whole entry): as the sequence (Q96SW2 whole entry) above
T4 sequence (Q16531 whole entry partner): as the sequence (Q16531 whole entry partner) above
T7 sequence (P30291 whole entry): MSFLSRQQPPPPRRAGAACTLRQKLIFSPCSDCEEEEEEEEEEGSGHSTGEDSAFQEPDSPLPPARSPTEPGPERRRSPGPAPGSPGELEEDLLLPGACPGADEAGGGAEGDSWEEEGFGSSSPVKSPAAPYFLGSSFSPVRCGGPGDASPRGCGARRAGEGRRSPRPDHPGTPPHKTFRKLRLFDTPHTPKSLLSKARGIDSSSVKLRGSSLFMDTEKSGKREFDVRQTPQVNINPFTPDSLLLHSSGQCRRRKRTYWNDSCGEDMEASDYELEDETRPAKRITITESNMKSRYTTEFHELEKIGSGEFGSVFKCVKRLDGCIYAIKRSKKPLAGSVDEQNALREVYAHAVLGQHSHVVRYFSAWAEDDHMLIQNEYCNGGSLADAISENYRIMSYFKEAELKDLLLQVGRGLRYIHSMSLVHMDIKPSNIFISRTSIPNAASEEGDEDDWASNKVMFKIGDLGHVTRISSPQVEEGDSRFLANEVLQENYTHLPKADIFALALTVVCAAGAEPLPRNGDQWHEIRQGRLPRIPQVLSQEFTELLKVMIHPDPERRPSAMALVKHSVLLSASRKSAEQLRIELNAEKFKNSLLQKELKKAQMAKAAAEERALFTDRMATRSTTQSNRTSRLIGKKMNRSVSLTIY
T7 sequence (Q96SW2 whole entry): as the sequence (Q96SW2 whole entry) above
T7 sequence (Q16531 whole entry partner): as the sequence (Q16531 whole entry partner) above

Row | SMILES | IC50 [1] | substrate protein remaining % [2] | substrate protein remaining % [3] | substrate protein remaining % [4] | substrate protein remaining % [5] | substrate protein remaining % [6] | substrate protein remaining % [7] | IC50 [8]
1 | O=C1CCC(N2Cc3cc(OC4CCNCC4)ccc3C2=O)C(=O)N1 (stereo not drawn) [GT-03612, 3-(1-oxo-5-(piperidin-4-yloxy)isoindolin-2-yl)piperidine-2,6-dione] | 1000 to 1900 nM | A (0%≤ substrate protein remaining % ≤80%) | A (0%≤ substrate protein remaining % ≤80%) | A (0%≤ substrate protein remaining % ≤80%) | A (0%≤ substrate protein remaining % ≤80%) | A (0%≤ substrate protein remaining % ≤80%) | A (0%≤ substrate protein remaining % ≤80%) | –
2 | O=C1CCC(N2Cc3cc(OC4CN(CC5=C(c6ccc(F)cc6)CCCC5)C4)ccc3C2=O)C(=O)N1 (stereo not drawn) [GT-06302, 3-(5-((1-((4′-fluoro-3,4,5,6-tetrahydro-[1,1′-biphenyl]-2-yl)methyl)azetidin-3-yl)oxy)-1-oxoisoindolin-2-yl)piperidine-2,6-dione] | 500 to 1000 nM | A (0%≤ substrate protein remaining % ≤80%) | A (0%≤ substrate protein remaining % ≤80%) | A (0%≤ substrate protein remaining % ≤80%) | A (0%≤ substrate protein remaining % ≤80%) | A (0%≤ substrate protein remaining % ≤80%) | A (0%≤ substrate protein remaining % ≤80%) | –
3 | CC1(C)CCC(CN2CC(Oc3ccc4c(c3)CN(C3CCC(=O)NC3=O)C4=O)C2)=C(c2ccc(F)cc2)C1 (stereo not drawn) [GT-03459, 3-(5-((1-((4′-fluoro-5,5-dimethyl-3,4,5,6-tetrahydro-[1,1′-biphenyl]-2-yl)methyl)azetidin-3-yl)oxy)-1-oxoisoindolin-2-yl)piperidine-2,6-dione] | 500 to 1000 nM | A (0%≤ substrate protein remaining % ≤80%) | A (0%≤ substrate protein remaining % ≤80%) | A (0%≤ substrate protein remaining % ≤80%) | A (0%≤ substrate protein remaining % ≤80%) | A (0%≤ substrate protein remaining % ≤80%) | A (0%≤ substrate protein remaining % ≤80%) | –
4 | CC1(C)CCC(C(=O)N2CCC3(CCC(Sc4ccc5c(c4)CN(C4CCC(=O)NC4=O)C5=O)CC3)CC2)=C(c2ccc(Cl)cc2)C1 (stereo not drawn) [GT-07016, 3-(5-((3-(4′-chloro-5,5-dimethyl-3,4,5,6-tetrahydro-[1,1′-biphenyl]-2-carbonyl)-3-azaspiro[5.5]undecan-9-yl)thio)-1-oxoisoindolin-2-yl)piperidine-2,6-dione] | 1000 to 1900 nM | – | – | – | – | – | – | 500 to 1000 nM
5 | O=C1CCC(N2Cc3cc(OC4CN(Cc5ccc(-c6ccncc6)nc5)C4)ccc3C2=O)C(=O)N1 (stereo not drawn) [GT-06809, 3-(5-((1-([2,4′-bipyridin]-5-ylmethyl)azetidin-3-yl)oxy)-1-oxoisoindolin-2-yl)piperidine-2,6-dione] | 500 to 1000 nM | A (0%≤ substrate protein remaining % ≤80%) | A (0%≤ substrate protein remaining % ≤80%) | A (0%≤ substrate protein remaining % ≤80%) | A (0%≤ substrate protein remaining % ≤80%) | A (0%≤ substrate protein remaining % ≤80%) | A (0%≤ substrate protein remaining % ≤80%) | –
6 | O=C1CCC(N2Cc3cc(SC4CN(CC5=C(c6ccc(Cl)cc6)CCOC5)C4)ccc3C2=O)C(=O)N1 (stereo not drawn) [GT-06351, 3-(5-((1-((4-(4-chlorophenyl)-5,6-dihydro-2H-pyran-3-yl)methyl)azetidin-3-yl)thio)-1-oxoisoindolin-2-yl)piperidine-2,6-dione] | < 500 nM | A (0%≤ substrate protein remaining % ≤80%) | A (0%≤ substrate protein remaining % ≤80%) | A (0%≤ substrate protein remaining % ≤80%) | A (0%≤ substrate protein remaining % ≤80%) | A (0%≤ substrate protein remaining % ≤80%) | – | –
7 | O=C1CCC(N2Cc3cc(SC4CN(C(c5cccc(F)c5)c5cccc(F)c5)C4)ccc3C2=O)C(=O)N1 (stereo not drawn) [GT-06349, 3-(5-((1-(bis(3-fluorophenyl)methyl)azetidin-3-yl)thio)-1-oxoisoindolin-2-yl)piperidine-2,6-dione] | 500 to 1000 nM | A (0%≤ substrate protein remaining % ≤80%) | A (0%≤ substrate protein remaining % ≤80%) | A (0%≤ substrate protein remaining % ≤80%) | A (0%≤ substrate protein remaining % ≤80%) | A (0%≤ substrate protein remaining % ≤80%) | – | –
8 | CC1(C)CC(c2ccc(Cl)cc2)=C(CN2CC(Sc3ccc4c(c3)CN(C3CCC(=O)NC3=O)C4=O)C2)CO1 (stereo not drawn) [GT-06514, 3-(5-((1-((4-(4-chlorophenyl)-6,6-dimethyl-5,6-dihydro-2H-pyran-3-yl)methyl)azetidin-3-yl)thio)-1-oxoisoindolin-2-yl)piperidine-2,6-dione] | 500 to 1000 nM | A (0%≤ substrate protein remaining % ≤80%) | A (0%≤ substrate protein remaining % ≤80%) | – | A (0%≤ substrate protein remaining % ≤80%) | A (0%≤ substrate protein remaining % ≤80%) | A (0%≤ substrate protein remaining % ≤80%) | –
9 | O=C1CCC(N2Cc3cc(SC4CN(Cc5cnc(-c6ccccc6)cn5)C4)ccc3C2=O)C(=O)N1 (stereo not drawn) [GT-06350, 3-(1-oxo-5-((1-((5-phenylpyrazin-2-yl)methyl)azetidin-3-yl)thio)isoindolin-2-yl)piperidine-2,6-dione] | < 500 nM | A (0%≤ substrate protein remaining % ≤80%) | A (0%≤ substrate protein remaining % ≤80%) | A (0%≤ substrate protein remaining % ≤80%) | A (0%≤ substrate protein remaining % ≤80%) | A (0%≤ substrate protein remaining % ≤80%) | – | –
10 | O=C1CCC(N2Cc3cc(SC4CN(C(c5ccccn5)c5ccccn5)C4)ccc3C2=O)C(=O)N1 (stereo not drawn) [GT-06811, 3-(5-((1-(di(pyridin-2-yl)methyl)azetidin-3-yl)thio)-1-oxoisoindolin-2-yl)piperidine-2,6-dione] | < 500 nM | A (0%≤ substrate protein remaining % ≤80%) | A (0%≤ substrate protein remaining % ≤80%) | – | A (0%≤ substrate protein remaining % ≤80%) | A (0%≤ substrate protein remaining % ≤80%) | A (0%≤ substrate protein remaining % ≤80%) | –
11 | CC1(C)CCC(CN2CC(Sc3ccc4c(c3)CN(C3CCC(=O)NC3=O)C4=O)C2)=C(c2ccc(F)cc2)C1 (stereo not drawn) [GT-03457, 3-(5-((1-((4′-fluoro-5,5-dimethyl-3,4,5,6-tetrahydro-[1,1′-biphenyl]-2-yl)methyl)azetidin-3-yl)thio)-1-oxoisoindolin-2-yl)piperidine-2,6-dione] | < 500 nM | A (0%≤ substrate protein remaining % ≤80%) | A (0%≤ substrate protein remaining % ≤80%) | A (0%≤ substrate protein remaining % ≤80%) | A (0%≤ substrate protein remaining % ≤80%) | A (0%≤ substrate protein remaining % ≤80%) | – | –
